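Five concentrations, 48 hours, 96-well plates. TGI marks complete inhibition of growth.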
Experiments:
Assay in all cases: NCI-60 cell line screen, 48 h
786-0 renal = tested on: 786-0 renal
A498 renal = tested on: A498 renal
A549 NSCLC = tested on: A549 NSCLC
ACHN renal = tested on: ACHN renal
CAKI-1 renal = tested on: CAKI-1 renal
CCRF-CEM leukemia = tested on: CCRF-CEM leukemia
COLO 205 colon = tested on: COLO 205 colon
DMS 114 small cell lung = tested on: DMS 114 small cell lung
DMS 273 small cell lung = tested on: DMS 273 small cell lung
EKVX NSCLC = tested on: EKVX NSCLC
HCC-2998 colon = tested on: HCC-2998 colon
HCT-116 colon = tested on: HCT-116 colon
HCT-15 colon = tested on: HCT-15 colon
HL-60(TB) leukemia = tested on: HL-60(TB) leukemia
HOP-62 NSCLC = tested on: HOP-62 NSCLC
HT29 colon = tested on: HT29 colon
K-562 leukemia = tested on: K-562 leukemia
KM12 colon = tested on: KM12 colon
KM20L2 colon = tested on: KM20L2 colon
LOX IMVI melanoma = tested on: LOX IMVI melanoma
LXFL 529 NSCLC = tested on: LXFL 529 NSCLC
M14 melanoma = tested on: M14 melanoma
MOLT-4 leukemia = tested on: MOLT-4 leukemia
NCI-H226 lung = tested on: NCI-H226 lung
NCI-H23 lung = tested on: NCI-H23 lung
NCI-H460 lung = tested on: NCI-H460 lung
NCI-H522 lung = tested on: NCI-H522 lung
OVCAR-3 ovarian = tested on: OVCAR-3 ovarian
OVCAR-4 ovarian = tested on: OVCAR-4 ovarian
OVCAR-5 ovarian = tested on: OVCAR-5 ovarian
RPMI-8226 leukemia = tested on: RPMI-8226 leukemia
RXF 393 renal = tested on: RXF 393 renal
SF-268 CNS = tested on: SF-268 CNS
SF-539 CNS = tested on: SF-539 CNS
SK-MEL-2 melanoma = tested on: SK-MEL-2 melanoma
SK-MEL-28 melanoma = tested on: SK-MEL-28 melanoma
SN12C renal = tested on: SN12C renal
SNB-19 CNS = tested on: SNB-19 CNS
SNB-78 CNS = tested on: SNB-78 CNS
SR leukemia = tested on: SR leukemia
SW-620 colon = tested on: SW-620 colon
TK-10 renal = tested on: TK-10 renal
U251 CNS = tested on: U251 CNS
UO-31 renal = tested on: UO-31 renal
BT-549 breast = tested on: BT-549 breast
DU-145 prostate = tested on: DU-145 prostate
HOP-92 NSCLC = tested on: HOP-92 NSCLC
HS 578T breast = tested on: HS 578T breast
IGROV1 ovarian = tested on: IGROV1 ovarian
MALME-3M melanoma = tested on: MALME-3M melanoma
MCF7 breast = tested on: MCF7 breast
MDA-MB-231 breast = tested on: MDA-MB-231 breast
MDA-MB-435 = tested on: MDA-MB-435
MDA-N = tested on: MDA-N
NCI/ADR-RES ovarian = tested on: NCI/ADR-RES ovarian
OVCAR-8 ovarian = tested on: OVCAR-8 ovarian
PC-3 prostate = tested on: PC-3 prostate
SF-295 CNS = tested on: SF-295 CNS
SK-MEL-5 melanoma = tested on: SK-MEL-5 melanoma
SK-OV-3 ovarian = tested on: SK-OV-3 ovarian
T-47D breast = tested on: T-47D breast
UACC-257 melanoma = tested on: UACC-257 melanoma
UACC-62 melanoma = tested on: UACC-62 melanoma

Measured: TGI

O=C(O)CCSC(=O)Nc1ccccc1F
not listed: BT-549 breast | DU-145 prostate | HOP-92 NSCLC | HS 578T breast | IGROV1 ovarian | MALME-3M melanoma | MCF7 breast | MDA-MB-231 breast | MDA-MB-435 | MDA-N | NCI/ADR-RES ovarian | OVCAR-8 ovarian | PC-3 prostate | SF-295 CNS | SK-MEL-5 melanoma | SK-OV-3 ovarian | T-47D breast | UACC-257 melanoma | UACC-62 melanoma
> 100 µM: all other assays above

O=C(O)c1cc(-c2ccncc2)nc2ccccc12
not listed: CCRF-CEM leukemia | DMS 114 small cell lung | DMS 273 small cell lung | KM20L2 colon | LXFL 529 NSCLC | SNB-78 CNS
> 100 µM: all other assays above

Reference: PubChem BioAssay (NCI)
